The values below come from patent US6720346B2, “Thiazole benzamide derivatives and pharmaceutical compositions for inhibiting cell proliferation” (Agouron Pharmaceuticals, Inc., priority 2001, dated 2004).

For experiment [1], the target named is T1, CDK2/cyclin A (Homo sapiens, UniProt P24941).
T1 construct: made in house; host or cells: CDK2: insect cells (baculovirus); cyclin A: E. coli
As to the kind of experiment: Inhibition of CDK2/cyclin A retinoblastoma kinase activity (Ki; % inhibition). As to conditions: for Ki: apparent Ki, CDK2/cyclin A, Rb substrate. It is filed as biochemical. An outline of the steps:
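Radiometric filter assay of CDK2/proteolyzed cyclin A (baculovirus-expressed human CDK2, 10 or 19 nM) phosphorylating an Rb fragment with 25 μM [³²P/³³P]ATP in pH 7.4 HEPES, 2% DMSO, at 30 °C for 60 or 75 min under initial-rate conditions. Library compounds screened at 30 nM for % inhibition; apparent Ki from concentration series fit to competitive or tight-binding inhibition equations.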

The target in experiment [2] is T2, human CDK4/cyclin D3 (Homo sapiens, UniProt P11802).
T2 construct: made in house; host or cells: insect cells co-infected with baculovirus vectors
T2 sequence (P11802 whole entry): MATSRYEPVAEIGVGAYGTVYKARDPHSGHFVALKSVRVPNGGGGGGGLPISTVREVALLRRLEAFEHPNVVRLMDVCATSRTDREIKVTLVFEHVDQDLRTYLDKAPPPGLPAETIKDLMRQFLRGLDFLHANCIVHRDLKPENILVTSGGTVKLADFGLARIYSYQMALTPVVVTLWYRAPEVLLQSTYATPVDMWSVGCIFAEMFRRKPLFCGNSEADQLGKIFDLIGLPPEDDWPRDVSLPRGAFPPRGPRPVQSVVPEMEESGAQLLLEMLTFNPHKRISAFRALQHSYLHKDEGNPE
T2 sequence (P30281 1-264 partner limits assumed): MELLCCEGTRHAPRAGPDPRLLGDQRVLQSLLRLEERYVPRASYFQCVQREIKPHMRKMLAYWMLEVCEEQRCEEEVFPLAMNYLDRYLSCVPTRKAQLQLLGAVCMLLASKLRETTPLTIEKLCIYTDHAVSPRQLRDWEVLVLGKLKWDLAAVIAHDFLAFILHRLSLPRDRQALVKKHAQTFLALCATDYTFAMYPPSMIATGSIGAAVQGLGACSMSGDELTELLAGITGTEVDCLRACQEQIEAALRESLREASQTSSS
The experiment can be described thus: Inhibition of CDK4/cyclin D retinoblastoma kinase activity (Ki; % inhibition). It is filed as biochemical. As to conditions: for Ki: apparent Ki, CDK4/cyclin D3, Rb substrate. An outline of the steps: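 Insect-cell-expressed CDK4 with truncated cyclin D3 (1-264), 5 nM, phosphorylating His-tagged Rb fragment (386-928) with 25 μM [32/33P]ATP at pH 7.4, 30 °C, 20 min (60 min for tight binders). Filter capture, phosphorimager read; % inhibition at 30 nM compound, Ki from competitive or tight-binding fits.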

Experiment [3] relates to HCT-116 cell line. As to the kind of experiment: Inhibition of cell growth, MTT tetrazolium salt assay. Format: cell-based. The conditions noted are these: for IC50: Homo sapiens, HCT-116, 120 h, MTT, three to five days. The gist of the method: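 HCT-116 cells in McCoy's 5A were dosed 4 h after plating with compounds in 0.5% DMSO and grown 3–5 days at 37 °C. Then 0.2 mg/mL MTT was added for 4 h and formazan absorbance read at 540 nm. IC50/IC90 came from semi-log plots against DMSO-only controls.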

The mark [4] stands for this setting: HCT-116 cells, 0.25 μM compound.

Usually IC50 stands for the point on the concentration scale where inhibition reaches its midpoint.

With `CCCCN(CCCC)C(=O)c1ccc(Nc2nc(N)c(C(=O)c3c(F)cccc3F)s2)cc1` [Example G314], the “CDK2 % Inhibition at 0.03 μM” value in experiment [1] (0.03 μM compound) is recorded as −7%. The “CDK4 % Inhibition at 0.03 μM” value in experiment [2] (0.03 μM compound) is listed as 0%. The “HCT-116 % Inhibition at 0.1 μM” value in experiment [3] (HCT-116 cells, 0.1 μM compound) is listed as 9%. Moreover, the “HCT-116 % Inhibition at 0.25 μM” value in experiment [3] (setting [4]) is given as 47%.
With `COC(CNC(=O)c1ccc(Nc2nc(N)c(C(=O)c3c(F)cccc3F)s2)cc1)OC` [Example G97], the “CDK2 % Inhibition at 0.03 μM” value in experiment [1] (at 0.03 μM) was determined as 2%. For the same molecule, the “CDK4 % Inhibition at 0.03 μM” value in experiment [2] (at 0.03 μM) worked out at 11%. For the same molecule, the “HCT-116 % Inhibition at 0.1 μM” value in experiment [3] (HCT-116, at 0.1 μM) is given as 28%. The “HCT-116 % Inhibition at 0.25 μM” value in experiment [3] (HCT-116, at 0.25 μM) is 56%.
Consider `Nc1nc(Nc2ccc(C(=O)Nc3ccc(CCO)cc3)cc2)sc1C(=O)c1c(F)cccc1F` [Example G328], for which the “CDK2 % Inhibition at 0.03 μM” value in experiment [1] (0.03 μM compound) is recorded as 19%. Besides, in experiment [2] (0.03 μM compound), the “CDK4 % Inhibition at 0.03 μM” value is recorded as 29%. For the same molecule, the “HCT-116 % Inhibition at 0.1 μM” value in experiment [3] (HCT-116 cells, 0.1 μM compound) is 33%. In experiment [3] (setting [4]), the “HCT-116 % Inhibition at 0.25 μM” value was found to be 89%.
As for `Nc1nc(Nc2ccc(C(=O)Nc3cc(F)cc(F)c3)cc2)sc1C(=O)c1c(F)cccc1F` [Example G68], the “CDK2 % Inhibition at 0.03 μM” value in experiment [1] (at 0.03 μM) is listed as 6%. Also, the “CDK4 % Inhibition at 0.03 μM” value in experiment [2] (at 0.03 μM) came to 3%. Also, the “HCT-116 % Inhibition at 0.25 μM” value in experiment [3] (HCT-116, at 0.25 μM) came to 59%.
Take `Nc1nc(Nc2ccc(C(=O)NCc3ccncc3)cc2)sc1C(=O)c1c(F)cccc1F` [Example G277]: the “CDK2 % Inhibition at 0.03 μM” value in experiment [1] (0.03 μM compound) stood at 8%. In experiment [2] (0.03 μM compound), the “CDK4 % Inhibition at 0.03 μM” value turned out to be 26%. Also, in experiment [3] (HCT-116 cells, 0.1 μM compound), the “HCT-116 % Inhibition at 0.1 μM” value is on record as 11%. In experiment [3] (setting [4]), the “HCT-116 % Inhibition at 0.25 μM” value is 56%.
Turning to `CC(C)[C@H](CN(C)C)NC(=O)c1ccc(Nc2nc(N)c(C(=O)c3c(F)cccc3F)s2)cc1` [Example A47, 4-[4-Amino-5-(2,6-difluoro-benzoyl)-thiazol-2-ylamino]-N-(1R-dimethylaminomethyl-2-methyl-propyl)-benzamide], the Ki in experiment [1] was 55 nM; in experiment [2], 5 nM. Also, the IC50 in experiment [3] came out at 580 nM.
On to `COc1ccc(C(F)(F)F)cc1NC(=O)c1ccc(Nc2nc(N)c(C(=O)c3c(F)cccc3F)s2)cc1` [Example G22], for which the “CDK2 % Inhibition at 0.03 μM” value in experiment [1] (at 0.03 μM) is 2%. Moreover, the “CDK4 % Inhibition at 0.03 μM” value in experiment [2] (at 0.03 μM) is recorded as −3%. Further, the “HCT-116 % Inhibition at 0.25 μM” value in experiment [3] (HCT-116, at 0.25 μM) is on record as 50%.
Turning to `Nc1nc(Nc2ccc(C(=O)NCCOc3ccccc3)cc2)sc1C(=O)c1c(F)cccc1F` [Example G113], the “CDK2 % Inhibition at 0.03 μM” value in experiment [1] (at 0.03 μM) was found to be 51%. For the same molecule, in experiment [2] (at 0.03 μM), the “CDK4 % Inhibition at 0.03 μM” value is reported as 43%. Moreover, the “HCT-116 % Inhibition at 0.1 μM” value in experiment [3] (HCT-116, at 0.1 μM) came out at 26%. Moreover, in experiment [3] (HCT-116, at 0.25 μM), the “HCT-116 % Inhibition at 0.25 μM” value is 80%.
Turning to `CCCN(C(=O)c1ccc(Nc2nc(N)c(C(=O)c3c(F)cccc3F)s2)cc1)C(C)CC` (centres unmarked) [Example G356], the “CDK2 % Inhibition at 0.03 μM” value in experiment [1] (0.03 μM compound) is recorded as −16%. For the same molecule, in experiment [2] (0.03 μM compound), the “CDK4 % Inhibition at 0.03 μM” value stood at 5%. The “HCT-116 % Inhibition at 0.1 μM” value in experiment [3] (HCT-116 cells, 0.1 μM compound) was found to be 27%. In addition, the “HCT-116 % Inhibition at 0.25 μM” value in experiment [3] (setting [4]) worked out at 50%.
As to `CN1CC[C@@H](NC(=O)c2ccc(Nc3nc(N)c(C(=O)c4c(F)cccc4F)s3)cc2)C1` [Example A30, 4-[4-Amino-5-(2,6-difluoro-benzoyl)-thiazol-2-ylamino]-N-(1-methyl-pyrrolidin-3R-yl)-benzamide], the Ki in experiment [1] was 69 nM; in experiment [2], 7 nM. For the same molecule, in experiment [3], the IC50 was 90 nM.
Regarding `Nc1nc(Nc2ccc(C(=O)NCc3ccc4c(c3)OCO4)cc2)sc1C(=O)c1c(F)cccc1F` [Example G172], the “CDK2 % Inhibition at 0.03 μM” value in experiment [1] (at 0.03 μM) is 36%. Besides, the “CDK4 % Inhibition at 0.03 μM” value in experiment [2] (at 0.03 μM) stood at 54%. For the same molecule, in experiment [3] (HCT-116, at 0.1 μM), the “HCT-116 % Inhibition at 0.1 μM” value is reported as 37%. The “HCT-116 % Inhibition at 0.25 μM” value in experiment [3] (HCT-116, at 0.25 μM) was 61%.
`COc1ccc(CNC(=O)c2ccc(Nc3nc(N)c(C(=O)c4c(F)cccc4F)s3)cc2)cc1OC` [Example G345]: the “CDK2 % Inhibition at 0.03 μM” value in experiment [1] (0.03 μM compound) is listed as −2%. Also, the “CDK4 % Inhibition at 0.03 μM” value in experiment [2] (0.03 μM compound) came to 6%. In addition, in experiment [3] (HCT-116 cells, 0.1 μM compound), the “HCT-116 % Inhibition at 0.1 μM” value is listed as 22%. Moreover, in experiment [3] (setting [4]), the “HCT-116 % Inhibition at 0.25 μM” value was determined as 36%.
